We go through 25 compounds from patent publication US10787452B2 (Vertex Pharmaceuticals Incorporated, priority 2012, dated 2020).

The structures appear in SMILES notation.

The test system of this experiment is HCT116 colorectal cancer cells. The experiment can be described thus: Cisplatin sensitization assay (96 h cell viability MTS).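 Note: compound concentration needed to lower the Cisplatin-alone IC50 by a set fold.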 The experiment is classed as cell-based. Conditions: 96 h MTS, compound plus Cisplatin. The gist of the method:
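Test compound and cisplatin were added together as a full matrix of 2-fold serial dilutions, each from a top final concentration of 10 μM. Cells were incubated 96 h at 37° C in 5% CO2, then viability was read by MTS after a further 1 h incubation.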

As for `Cc1ncn(-c2ccncc2NC(=O)c2c(N)nn3cc(F)cnc23)c1C` [I-N-269, 2-amino-N-(4-(4,5-dimethyl-1H-imidazol-1-yl)pyridin-3-yl)-6-fluoropyrazolo[1,5-a]pyrimidine-3-carboxamide], the “Cisplatin Sensitization Assay” value was “++ (Compounds with a Cisplatin sensitization value >0.02 μM but <0.2 μM are marked with “++.”)”.

As for `Nc1nn2cc(F)cnc2c1C(=O)Nc1cncc(F)c1N1CCN(C(=O)CN2CCCC2)CC1` [I-N-187, 2-amino-6-fluoro-N-(5-fluoro-4-(4-(2-(pyrrolidin-1-yl)acetyl)piperazin-1-yl)pyridin-3-yl)pyrazolo[1,5-a]pyrimidine-3-carboxamide], the “Cisplatin Sensitization Assay” value is “+++ (Compounds with a Cisplatin sensitization value of <0.02 μM are marked with “+++.”)”.

`Nc1nn2cc(F)cnc2c1C(=O)Nc1cncc(F)c1N1CCN(C(=O)C2CCN(C3COC3)CC2)CC1` [I-N-211, 2-amino-6-fluoro-N-(5-fluoro-4-(4-(1-(oxetan-3-yl)piperidine-4-carbonyl)piperazin-1-yl)pyridin-3-yl)pyrazolo[1,5-a]pyrimidine-3-carboxamide]: the “Cisplatin Sensitization Assay” value is “++ (Compounds with a Cisplatin sensitization value >0.02 μM but <0.2 μM are marked with “++.”)”.

As to `CN1CCC(Oc2ccncc2NC(=O)c2c(N)nn3cc(CC#N)cnc23)CC1` [I-O-23, 2-amino-6-(cyanomethyl)-N-(4-((1-methylpiperidin-4-yl)oxy)pyridin-3-yl)pyrazolo[1,5-a]pyrimidine-3-carboxamide], the “Cisplatin Sensitization Assay” value is reported as “+++ (Compounds with a Cisplatin sensitization value of <0.02 μM are marked with “+++.”)”.

As to `Cc1nc(N2CCN(C)CC2)ccc1-c1ccncc1NC(=O)c1c(N)nn2cc(F)cnc12` [I-C-40, 2-amino-6-fluoro-N-(2-methyl-6-(4-methylpiperazin-1-yl)-[3,4′-bipyridin]-3′-yl)pyrazolo[1,5-a]pyrimidine-3-carboxamide], the “Cisplatin Sensitization Assay” value was “+++ (Compounds with a Cisplatin sensitization value of <0.02 μM are marked with “+++.”)”.

`Nc1nn2cc(F)cnc2c1C(=O)Nc1cnccc1-n1ccnc1C1CC1` [I-N-202, 2-amino-N-(4-(2-cyclopropyl-1H-imidazol-1-yl)pyridin-3-yl)-6-fluoropyrazolo[1,5-a]pyrimidine-3-carboxamide]: the “Cisplatin Sensitization Assay” value is “+++ (Compounds with a Cisplatin sensitization value of <0.02 μM are marked with “+++.”)”.

`Nc1nn2cc(F)cnc2c1C(=O)Nc1cncc(F)c1N1CCC(S(=O)(=O)N2CCOCC2)CC1` [I-N-155, 2-amino-6-fluoro-N-(5-fluoro-4-(4-(morpholinosulfonyl)piperidin-1-yl)pyridin-3-yl)pyrazolo[1,5-a]pyrimidine-3-carboxamide]: the “Cisplatin Sensitization Assay” value is recorded as “+++ (Compounds with a Cisplatin sensitization value of <0.02 μM are marked with “+++.”)”.

On to `CN1CCC(NC(=O)C2CCN(c3c(F)cncc3NC(=O)c3c(N)nn4cc(F)cnc34)CC2)C1` (stereo not shown) [I-G-24, 2-amino-6-fluoro-N-(5-fluoro-4-(4-((1-methylpyrrolidin-3-yl)carbamoyl)piperidin-1-yl)pyridin-3-yl)pyrazolo[1,5-a]pyrimidine-3-carboxamide], for which the “Cisplatin Sensitization Assay” value is “+++ (Compounds with a Cisplatin sensitization value of <0.02 μM are marked with “+++.”)”.

For `CN(C)[C@@H]1CCN(C(=O)C2CCN(c3c(F)cncc3NC(=O)c3c(N)nn4cc(F)cnc34)CC2)C1` [I-G-11, (R)-2-amino-N-(4-(4-(3-(dimethylamino)pyrrolidine-1-carbonyl)piperidin-1-yl)-5-fluoropyridin-3-yl)-6-fluoropyrazolo[1,5-a]pyrimidine-3-carboxamide], the “Cisplatin Sensitization Assay” value is “+++ (Compounds with a Cisplatin sensitization value of <0.02 μM are marked with “+++.”)”.

On to `CC1CN(C)CCN1c1ccncc1NC(=O)c1c(N)nn2cc(Cl)cnc12` (stereo not shown) [I-N-72, 2-amino-6-chloro-N-(4-(2,4-dimethylpiperazin-1-yl)pyridin-3-yl)pyrazolo[1,5-a]pyrimidine-3-carboxamide], for which the “Cisplatin Sensitization Assay” value is “+++ (Compounds with a Cisplatin sensitization value of <0.02 μM are marked with “+++.”)”.

`Cc1nn(C)cc1-c1ccncc1NC(=O)c1c(N)nn2cc(F)cnc12` [I-C-63, 2-amino-N-(4-(1,3-dimethyl-1H-pyrazol-4-yl)pyridin-3-yl)-6-fluoropyrazolo[1,5-a]pyrimidine-3-carboxamide]: the “Cisplatin Sensitization Assay” value was “+++ (Compounds with a Cisplatin sensitization value of <0.02 μM are marked with “+++.”)”.

`CN1CCN(C(=O)C2CCN(c3c(Cl)cncc3NC(=O)c3c(N)nn4cc(F)cnc34)CC2)CC1` [I-G-3, 2-amino-N-(5-chloro-4-(4-(4-methylpiperazine-1-carbonyl)piperidin-1-yl)pyridin-3-yl)-6-fluoropyrazolo[1,5-a]pyrimidine-3-carboxamide]: the “Cisplatin Sensitization Assay” value is on record as “+++ (Compounds with a Cisplatin sensitization value of <0.02 μM are marked with “+++.”)”.

With `Nc1nn2cc(F)cnc2c1C(=O)Nc1cncc(F)c1OC1CCN(C2COC2)CC1` [I-O-91, 2-amino-6-fluoro-N-(5-fluoro-4-((1-(oxetan-3-yl)piperidin-4-yl)oxy)pyridin-3-yl)pyrazolo[1,5-a]pyrimidine-3-carboxamide], the “Cisplatin Sensitization Assay” value is “++ (Compounds with a Cisplatin sensitization value >0.02 μM but <0.2 μM are marked with “++.”)”.

On to `C[C@@H]1CN(C(=O)C2CCN(c3c(F)cncc3NC(=O)c3c(N)nn4cc(F)cnc34)CC2)CCN1C` [I-G-50, (R)-2-amino-N-(4-(4-(3,4-dimethylpiperazine-1-carbonyl)piperidin-1-yl)-5-fluoropyridin-3-yl)-6-fluoropyrazolo[1,5-a]pyrimidine-3-carboxamide], for which the “Cisplatin Sensitization Assay” value is given as “+++ (Compounds with a Cisplatin sensitization value of <0.02 μM are marked with “+++.”)”.

As for `CN1CC[C@@H](Oc2ccncc2NC(=O)c2c(N)nn3cc(Cl)cnc23)C1` [I-O-63, (R)-2-amino-6-chloro-N-(4-((1-methylpyrrolidin-3-yl)oxy)pyridin-3-yl)pyrazolo[1,5-a]pyrimidine-3-carboxamide], the “Cisplatin Sensitization Assay” value is recorded as “++ (Compounds with a Cisplatin sensitization value >0.02 μM but <0.2 μM are marked with “++.”)”.

Turning to `N#CC1CN(C(=O)C2CCN(c3c(F)cncc3NC(=O)c3c(N)nn4cc(F)cnc34)CC2)C1` [I-G-76, 2-amino-N-(4-(4-(3-cyanoazetidine-1-carbonyl)piperidin-1-yl)-5-fluoropyridin-3-yl)-6-fluoropyrazolo[1,5-a]pyrimidine-3-carboxamide], the “Cisplatin Sensitization Assay” value is given as “+++ (Compounds with a Cisplatin sensitization value of <0.02 μM are marked with “+++.”)”.

In the case of `N#CCc1cnc2c(C(=O)Nc3cnccc3N3CCCCC3)c(N)nn2c1` [I-N-84, 2-amino-6-(cyanomethyl)-N-(4-(piperidin-1-yl)pyridin-3-yl)pyrazolo[1,5-a]pyrimidine-3-carboxamide], the “Cisplatin Sensitization Assay” value is recorded as “+++ (Compounds with a Cisplatin sensitization value of <0.02 μM are marked with “+++.”)”.

For `Nc1nn2cc(F)cnc2c1C(=O)Nc1cncc(F)c1N1CCN(C(=O)C2CC3CCCCN3C2)CC1` (stereo not shown) [I-N-203, 2-amino-6-fluoro-N-(5-fluoro-4-(4-(octahydroindolizine-2-carbonyl)piperazin-1-yl)pyridin-3-yl)pyrazolo[1,5-a]pyrimidine-3-carboxamide], the “Cisplatin Sensitization Assay” value was “+++ (Compounds with a Cisplatin sensitization value of <0.02 μM are marked with “+++.”)”.

Take `CCN1CCN(C(=O)C2CCN(c3c(F)cncc3NC(=O)c3c(N)nn4cc(F)cnc34)CC2)CC1` [I-G-9, 2-amino-N-(4-(4-(4-ethylpiperazine-1-carbonyl)piperidin-1-yl)-5-fluoropyridin-3-yl)-6-fluoropyrazolo[1,5-a]pyrimidine-3-carboxamide]: the “Cisplatin Sensitization Assay” value is on record as “+++ (Compounds with a Cisplatin sensitization value of <0.02 μM are marked with “+++.”)”.

As to `Nc1nn2cc(F)cnc2c1C(=O)Nc1cnccc1N1CCC2(CCNC2)CC1` [I-N-255, N-(4-(2,8-diazaspiro[4.5]decan-8-yl)pyridin-3-yl)-2-amino-6-fluoropyrazolo[1,5-a]pyrimidine-3-carboxamide], the “Cisplatin Sensitization Assay” value was “++ (Compounds with a Cisplatin sensitization value >0.02 μM but <0.2 μM are marked with “++.”)”.

As for `CN1CCC(c2c(F)cncc2NC(=O)c2c(N)nn3cc(F)cnc23)CC1` [I-C-14, 2-amino-6-fluoro-N-(5-fluoro-4-(1-methylpiperidin-4-yl)pyridin-3-yl)pyrazolo[1,5-a]pyrimidine-3-carboxamide], the “Cisplatin Sensitization Assay” value is given as “+ (Compounds with a Cisplatin sensitization value >0.2 μM but <5 μM are marked with “+.”)”.

Take `N#CCc1cnc2c(C(=O)Nc3cnccc3N3CCC(O)CC3)c(N)nn2c1` [I-N-83, 2-amino-6-(cyanomethyl)-N-(4-(4-hydroxypiperidin-1-yl)pyridin-3-yl)pyrazolo[1,5-a]pyrimidine-3-carboxamide]: the “Cisplatin Sensitization Assay” value is on record as “++ (Compounds with a Cisplatin sensitization value >0.02 μM but <0.2 μM are marked with “++.”)”.

Turning to `COCCN(C)C(=O)C1CCN(c2c(F)cncc2NC(=O)c2c(N)nn3cc(F)cnc23)CC1` [I-G-40, 2-amino-6-fluoro-N-(5-fluoro-4-(4-((2-methoxyethyl)(methyl)carbamoyl)piperidin-1-yl)pyridin-3-yl)pyrazolo[1,5-a]pyrimidine-3-carboxamide], the “Cisplatin Sensitization Assay” value is listed as “+++ (Compounds with a Cisplatin sensitization value of <0.02 μM are marked with “+++.”)”.

Consider `Nc1nn2cc(F)cnc2c1C(=O)Nc1cnccc1N1CCC(C(=O)N2CCCC2)CC1` [I-G-83, 2-amino-6-fluoro-N-(4-(4-(pyrrolidine-1-carbonyl)piperidin-1-yl)pyridin-3-yl)pyrazolo[1,5-a]pyrimidine-3-carboxamide], for which the “Cisplatin Sensitization Assay” value was “+++ (Compounds with a Cisplatin sensitization value of <0.02 μM are marked with “+++.”)”.

As to `Nc1nn2cc(F)cnc2c1C(=O)Nc1cnccc1N1CCC(C(=O)N2CCC3(COC3)C2)CC1` [I-G-84, N-(4-(4-(2-oxa-6-azaspiro[3.4]octane-6-carbonyl)piperidin-1-yl)pyridin-3-yl)-2-amino-6-fluoropyrazolo[1,5-a]pyrimidine-3-carboxamide], the “Cisplatin Sensitization Assay” value is “+++ (Compounds with a Cisplatin sensitization value of <0.02 μM are marked with “+++.”)”.
